Measured values reported in patent publication US20230105212A1, “BIPHENYL DERIVATIVE INHIBITOR, PREPARATION METHOD THEREFOR AND USE THEREOF” (SHANGHAI HANSOH BIOMEDICAL CO., LTD., priority 2020, published 2023).

Columns and labels:
[1] = test system: NFAT-luc2/PD1 Jurkat cells; test: In vitro cytotoxicity on NFAT-luc2/PD1 Jurkat cells (CellTiter-Glo); type: cell-based; settings: 72 hours; for IC50: Homo sapiens, Jurkat
Description: (§1) Test Embodiment 5. In Vitro Cytotoxicity of the Compounds of the Present Disclosure on NFAT-Luc2/PD1 Jurkat Cells and MC38-hPDL1 Cells
(§2) Experimental purpose: To test the in vitro cytotoxicity of compounds on NFAT-luc2/PD1 Jurkat cells and MC38-hPDL1 cells.
(§3) When the cells were cultured to an appropriate degree of confluency, the cells were collected, and the cells was adjusted in an appropriate cell concentration by complete medium, then the cell suspension was plated in a 96-well plate, 90 μL per well, and put in a 37° C., 5% CO2 incubator overnight; compound solutions of different concentrations were prepared by DMSO and medium, and a vehicle control was set; compound solutions were added to a 96-well plate, 10 μL per well, and put in a 37° C., 5% CO2 incubator and cultured for 72 hours. After that, CellTiter-Glo solution was added, the mixture was shaken and mixed evenly, incubated in the dark for 10 minutes, and a BioTek Synergy H1 microplate reader was used for reading.
(§4) Luminescence signal value was used to calculate the inhibition rate, and the concentration and inhibition rate were fitted by nonlinear regression curve using Graphpad Prism software to obtain IC50 values, as shown in the following table: […]

[2] = target: T1, human PD-1/PD-L1 binding (Homo sapiens, UniProt Q9NZQ7); test: Inhibition of human PD-1/PD-L1 binding (TR-FRET/HTRF); settings: TR-FRET, PD-L1-His and PD-1-Fc; read-out: PD-1/PD-L1 binding IC50
T1 construct: PD-L1-His protein (19 to 238 amino acids) (Abcam #ab167713); purchased Abcam (PD-L1-His); R&D (PD-1-Fc) ab167713; 1086-PD
T1 sequence (Q9NZQ7 19-238): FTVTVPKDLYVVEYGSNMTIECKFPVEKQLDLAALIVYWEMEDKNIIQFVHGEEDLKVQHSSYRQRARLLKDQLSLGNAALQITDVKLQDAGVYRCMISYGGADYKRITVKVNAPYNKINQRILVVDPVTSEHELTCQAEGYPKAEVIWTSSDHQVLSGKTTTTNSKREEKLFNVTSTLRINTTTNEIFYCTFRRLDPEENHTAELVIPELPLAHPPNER
Summary of the method: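 PD-L1-His (aa 19–238, diluted to 10 nM) and PD-1-Fc (aa 25–167, diluted to 20 nM) incubated with compounds (10 μM or 1 μM top, 3-fold, 11 doses) 60 min at room temperature, then anti-6HIS Eu cryptate/anti-human IgG-XL665 added for 3 h RT or overnight 4 °C. HTRF 665/620 nm ratio gave inhibition and IC50.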

[3] = target: T2, PD-L1 protein on the surface of MC38-hPDL1 tumor cells (Homo sapiens, UniProt Q9NZQ7); test: Induction of endocytosis of PD-L1 on the surface of tumor cells (flow cytometry); type: cell-based; settings: 16 hours incubation; for Emax: MC38-hPDL1 cells, read-out: MC38 maximum endocytosis rate; for IC50: inducing endocytosis of PD-L1, MC38-hPDL1 cells, read-out: MC38 IC50
T2 construct: expressed in transfected cells; host or cells: MC38-hPDL1 (mouse colon cancer cells)
T2 sequence (Q9NZQ7 19-290): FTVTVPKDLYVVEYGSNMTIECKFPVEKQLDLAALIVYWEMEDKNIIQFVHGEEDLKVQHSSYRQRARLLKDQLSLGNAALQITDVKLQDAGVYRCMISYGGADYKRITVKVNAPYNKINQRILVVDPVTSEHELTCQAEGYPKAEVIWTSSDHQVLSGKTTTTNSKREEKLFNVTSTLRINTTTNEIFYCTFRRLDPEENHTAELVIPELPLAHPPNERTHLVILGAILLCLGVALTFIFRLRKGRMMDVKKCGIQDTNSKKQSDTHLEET
Summary of the method: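 IC50 comes from nonlinear fits of endocytosis rate, calculated from the loss of surface PE-anti-CD274 flow signal relative to vehicle. Cells were MC38 mouse colon cancer cells engineered to express high human PD-L1. Compound exposure lasted 16 h at 37 °C, 5% CO2.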

[4] = test system: MC38-hPDL1 cells; test: In vitro cytotoxicity on MC38-hPDL1 cells (CellTiter-Glo); type: cell-based, mouse; settings: for MC38-hPDL1 inhibition rate (%): 72 hours; for IC50: Mus musculus, MC38-hPD-L1, 72 hours
Description: as §1, §2, §3, §4

[5] = target: T3, human PD-L1 protein (Homo sapiens, UniProt Q9NZQ7); test: Thermal shift: melting temperature of PD-L1 protein; type: binding; settings: compound 10 μM, PD-L1 protein 2 μM, Tm minus DMSO vehicle control; read-out: ΔTm (° C.)
T3 construct: purchased Acro Biosystems PD1-H5229
T3 sequence (Q9NZQ7 19-238 limits assumed): as the sequence (Q9NZQ7 19-238) above
Summary of the method: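 Human PD-L1 at 2 μM final was tested in […], 150 mM NaCl with SYPRO Orange, heated 25→95 °C at 0.03 °C/s in a PCR melt-curve run. Tm was taken per treatment; ΔTm is the shift relative to DMSO vehicle.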

**Q.** With COc1cc(C(=O)Nc2cccc(-c3cccc(NC(=O)c4nc5c(n4C)CCN(C)C5)c3Cl)c2C)ncc1CN[C@@H]1CCOC[C@@H]1F [Embodiment 30, N-(2-Chloro-3′-(5-((((3R,4R)-3-fluorotetrahydro-2H-pyran-4-yl)amino)methyl)-4-methoxypicolinamido)-2′-methyl-[1,1′-biphenyl]-3-yl)-1,5-dimethyl-4,5,6,7-tetrahydro-1H-imidazo[4,5-c]pyridine-2-carboxamide] as the compound, how does the “Jurkat-PD1 inhibition rate (%)” value [1] read?
**A.** 99.0%^

**Q.** And the IC50 [1]?
**A.** 2950 nM

**Q.** And the IC50 [2]?
**A.** 5.7 nM

**Q.** And the Emax [3]?
**A.** 94%

**Q.** And the IC50 [3]?
**A.** 3.7 nM

**Q.** And the “MC38-hPDL1 inhibition rate (%)” value [4]?
**A.** 4.0%

**Q.** What about the IC50 [4] of the same compound?
**A.** > 10000 nM

**Q.** What about the ΔTm at 10 µM [5] of the same compound?
**A.** 11.2 °C

**Q.** Which “Jurkat-PD1 inhibition rate (%)” value [1] does the source give for COc1nc(-c2cccc(-c3cccc(NC(=O)c4nc5c(n4C)CCN(C)C5)c3Cl)c2C)ccc1CNC1COC1 [Embodiment 112, N-(2-Chloro-3′-(6-methoxy-5-((oxetan-3-ylamino)methyl)pyridin-2-yl)-2′-methyl-[1,1′-biphenyl]-3-yl)-1,5-dimethyl-4,5,6,7-tetrahydro-1H-imidazo[4,5-c]pyridine-2-carboxamide] here?
**A.** 57.0%^

**Q.** What about the IC50 [1] of the same compound?
**A.** 8630 nM

**Q.** And the IC50 [2]?
**A.** 9.4 nM

**Q.** And the Emax [3]?
**A.** 87%

**Q.** What about the IC50 [3] of the same compound?
**A.** 11 nM

**Q.** What about the “MC38-hPDL1 inhibition rate (%)” value [4] of the same compound?
**A.** 13.0%^

**Q.** And the IC50 [4]?
**A.** > 10000 nM

**Q.** What about the ΔTm at 10 µM [5] of the same compound?
**A.** 12 °C

**Q.** With COc1nc(-c2cccc(-c3cccc(NC(=O)c4nc5c(n4C)CCN(C)C5)c3Cl)c2Cl)ccc1CN1CC(CO)C1 [Embodiment 215, N-(2,2′-Dichloro-3′-(5-((3-(hydroxymethyl)azetidin-1-yl)methyl)-6-methoxypyridin-2-yl)-[1,1′-biphenyl]-3-yl)-1,5-dimethyl-4,5,6,7-tetrahydro-1H-imidazo[4,5-c]pyridine-2-carboxamide] as the compound, how does the “Jurkat-PD1 inhibition rate (%)” value [1] read?
**A.** 85%

**Q.** What about the IC50 [1] of the same compound?
**A.** 4320 nM

**Q.** And the IC50 [2]?
**A.** 5 nM

**Q.** What about the Emax [3] of the same compound?
**A.** 96%

**Q.** And the “MC38-hPDL1 inhibition rate (%)” value [4]?
**A.** 51%

**Q.** And the IC50 [4]?
**A.** 9340 nM

**Q.** And the ΔTm at 10 µM [5]?
**A.** 17.3 °C

**Q.** How did the “Jurkat-PD1 inhibition rate (%)” value [1] turn out when COc1nc(-c2cccc(-c3cccc(NC(=O)c4nc5c(n4C)CCN(C)C5)c3Cl)c2Cl)ncc1CN1CC(NC(C)=O)C1 [Embodiment 224, N-(3′-(5-((3-Acetylaminoazetidin-1-yl)methyl)-4-methoxypyrimidin-2-yl)-2,2′-dichloro-[1,1′-biphenyl]-3-yl)-1,5-dimethyl-4,5,6,7-tetrahydro-1H-imidazo[4,5-c]pyridine-2-carboxamide] was run?
**A.** 48%

**Q.** What about the IC50 [1] of the same compound?
**A.** 9500 nM

**Q.** And the IC50 [2]?
**A.** 4 nM

**Q.** And the Emax [3]?
**A.** 90%

**Q.** And the “MC38-hPDL1 inhibition rate (%)” value [4]?
**A.** 1%

**Q.** And the IC50 [4]?
**A.** > 10000 nM

**Q.** What about the ΔTm at 10 µM [5] of the same compound?
**A.** 11.3 °C
